Measurements from patent US20230257372A1 (CHONG KUN DANG PHARMACEUTICAL CORP., priority 2020, published 2023).
Like-named read-outs stand apart in the source and are kept apart here.

Experiments:
[1] = system: hippocampal neurons from a Sprague-Dawley (SD) rat fetus; experiment: Effect of HDAC6-specific inhibitor on axonal transport of mitochondria in amyloid-beta treated neurons; type: cell-based; settings: transport velocity of mitochondria in neuronal axon after normalization; vehicle = 100%, amyloid beta treatment group = 0%; compound treatment for three hours
In short: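 Rat E17-18 hippocampal neurons exposed to amyloid-beta fragments […]; after 24 h (day 8 in vitro) compound added for 3 h, mitochondria stained with MitoTracker Red CMXRos. Confocal imaging every 1 s for 1 min gave per-mitochondrion velocity, normalized vehicle = 100%, amyloid-beta = 0%.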

human recombinant HDAC1 = target: T1, human recombinant HDAC1 (Homo sapiens, UniProt Q13547); experiment: HDAC1 enzyme activity inhibition (HDAC Fluorimetric Drug Discovery Kit); type: biochemical; settings: read-out: HDAC1
T1 construct: purchased Enzo Life Science, Inc. BML-SE456
T1 sequence (Q13547 whole entry): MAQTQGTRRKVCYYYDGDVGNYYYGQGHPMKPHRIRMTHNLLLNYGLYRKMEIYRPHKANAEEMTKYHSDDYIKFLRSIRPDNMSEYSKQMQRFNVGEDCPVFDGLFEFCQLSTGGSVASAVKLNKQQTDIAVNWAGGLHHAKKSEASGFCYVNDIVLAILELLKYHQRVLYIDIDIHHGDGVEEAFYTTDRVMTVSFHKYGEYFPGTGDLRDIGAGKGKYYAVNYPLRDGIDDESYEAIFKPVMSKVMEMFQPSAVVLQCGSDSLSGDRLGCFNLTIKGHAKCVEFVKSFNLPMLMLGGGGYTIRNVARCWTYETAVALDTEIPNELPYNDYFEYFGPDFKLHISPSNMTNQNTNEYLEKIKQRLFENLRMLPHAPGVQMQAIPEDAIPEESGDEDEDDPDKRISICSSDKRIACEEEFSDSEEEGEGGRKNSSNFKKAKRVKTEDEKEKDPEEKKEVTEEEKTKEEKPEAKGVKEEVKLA
In short: (§1)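 Fluorimetric deacetylase read-out. 5-fold compound dilutions; […] enzyme, 10 μM substrate; 30° C, 60 min; developer 30 min.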

human recombinant HDAC6 = target: T2, human recombinant HDAC6 (Homo sapiens, UniProt Q9UBN7); experiment: HDAC6 enzyme activity inhibition (HDAC Fluorimetric Drug Discovery Kit); type: biochemical
T2 construct: purchased Calbiochem Inc. 382180
T2 sequence (Q9UBN7 1-1215): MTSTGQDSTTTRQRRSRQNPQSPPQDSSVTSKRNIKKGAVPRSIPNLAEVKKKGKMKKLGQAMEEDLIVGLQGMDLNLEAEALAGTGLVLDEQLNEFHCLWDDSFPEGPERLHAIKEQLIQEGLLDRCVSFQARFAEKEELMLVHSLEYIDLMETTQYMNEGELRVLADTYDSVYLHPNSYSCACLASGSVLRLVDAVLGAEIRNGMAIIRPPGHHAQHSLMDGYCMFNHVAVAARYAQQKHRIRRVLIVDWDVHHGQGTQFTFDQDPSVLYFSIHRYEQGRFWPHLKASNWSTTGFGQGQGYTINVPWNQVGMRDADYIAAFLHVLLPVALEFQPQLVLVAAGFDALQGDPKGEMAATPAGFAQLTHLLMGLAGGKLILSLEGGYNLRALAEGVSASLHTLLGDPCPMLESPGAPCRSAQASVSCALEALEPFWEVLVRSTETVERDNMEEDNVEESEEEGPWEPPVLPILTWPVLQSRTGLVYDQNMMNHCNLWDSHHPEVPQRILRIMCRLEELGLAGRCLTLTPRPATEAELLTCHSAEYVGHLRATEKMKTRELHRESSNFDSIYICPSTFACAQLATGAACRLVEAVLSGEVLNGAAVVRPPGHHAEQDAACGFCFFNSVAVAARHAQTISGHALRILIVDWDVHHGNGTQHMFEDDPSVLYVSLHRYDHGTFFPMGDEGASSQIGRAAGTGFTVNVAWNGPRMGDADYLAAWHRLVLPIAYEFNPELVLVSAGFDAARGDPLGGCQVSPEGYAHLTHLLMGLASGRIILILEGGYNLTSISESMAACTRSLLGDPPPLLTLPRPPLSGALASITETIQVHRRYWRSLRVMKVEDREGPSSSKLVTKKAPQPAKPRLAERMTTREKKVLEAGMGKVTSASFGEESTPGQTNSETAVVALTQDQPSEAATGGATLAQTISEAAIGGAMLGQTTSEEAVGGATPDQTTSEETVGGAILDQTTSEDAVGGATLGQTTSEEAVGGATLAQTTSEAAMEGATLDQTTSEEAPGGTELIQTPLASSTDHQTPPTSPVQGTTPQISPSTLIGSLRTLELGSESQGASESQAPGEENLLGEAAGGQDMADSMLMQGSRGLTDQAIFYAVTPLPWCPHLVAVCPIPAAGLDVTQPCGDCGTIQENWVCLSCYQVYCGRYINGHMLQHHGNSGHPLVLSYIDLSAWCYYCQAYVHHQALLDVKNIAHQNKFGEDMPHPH
In short: as §1

[2] = human recombinant HDAC1, IC50 calculated with GraphPad Prism
[3] = human recombinant HDAC6, IC50 calculated with GraphPad Prism

| SMILES | Velocity distribution (%) [1] | IC50 (human recombinant HDAC1; [2]) [nM] | HDAC6 selectivity (fold) (human recombinant HDAC6; HDAC1 IC50 / HDAC6 IC50) | IC50 (human recombinant HDAC6; [3]) [nM] | IC50 (human recombinant HDAC1; human recombinant HDAC1, Fluor de Lys substrate, 30° C. 60 minutes) [nM] | HDAC6 selectivity (fold) (human recombinant HDAC6; HDAC6 over HDAC1) | IC50 (human recombinant HDAC6; human recombinant HDAC6, same protocol as HDAC1) [nM] |
| --- | --- | --- | --- | --- | --- | --- | --- |
| Cc1cc2cc(-c3cn(Cc4ccc(-c5nnc(C(F)F)o5)cn4)nn3)ccc2[nH]1 [Compound 4289, 2-(difluoromethyl)-5-(6-((4-(2-methyl-1H-indol-5-yl)-1H-1,2,3-triazol-1-yl)methyl)pyridin-3-yl)-1,3,4-oxadiazole] | *** (***, >100%) | > 50000 | 416 | 12 |  |  |  |
| COC(=O)Nc1cccc(-c2cn(Cc3ccc(-c4nnc(C(F)F)o4)cc3F)nn2)c1 [Compound 3776, Methyl (3-(1-(4-(5-(difluoromethyl)-1,3,4-oxadiazol-2-yl)-2-fluorobenzyl)-1H-1,2,3-triazol-4-yl)phenyl)carbamate] | *** (***, >100%) | > 50000 | 1984 | 25.2 |  |  |  |
| Fc1cc(-c2nnc(C(F)F)o2)cnc1Cn1cc(-c2cccc3[nH]ncc23)nn1 [Compound 19058, 2-(6-((4-(1H-indazol-4-yl)-1H-1,2,3-triazol-1-yl)methyl)-5-fluoropyridin-3-yl)-5-(difluoromethyl)-1,3,4-oxadiazole] | *** (***, >100%) |  |  |  | > 50000 | 2304 | 21.7 |
| FC(F)c1nnc(-c2ccc(Cn3cc(-c4ccc5[nH]cc(CN6CCOCC6)c5c4)nn3)nc2)o1 [Compound 4187, 4-((5-(1-((5-(5-(difluoromethyl)-1,3,4-oxadiazol-2-yl)pyridin-2-yl)methyl)-1H-1,2,3-triazol-4-yl)-1H-indol-3-yl)methyl)morpholine] | * (*, 0%˜50%) | > 50000 | 5617 | 8.9 |  |  |  |
| FC(F)c1nnc(-c2ccc(Cn3cc(-c4ccc5c(c4)CCN(C4COC4)C5)nn3)nc2)o1 [Compound 4055, 2-(difluoromethyl)-5-(6-((4-(2-(oxetan-3-yl)-1,2,3,4-tetrahydroisoquinolin-6-yl)-1H-1,2,3-triazol-1-yl)methyl)pyridin-3-yl)-1,3,4-oxadiazole] | * (*, 0%˜50%) | > 50000 | 868 | 57.6 |  |  |  |
| FC(F)c1nnc(-c2ccc(Cn3cc(-c4ccc5[nH]ccc5c4)nn3)nc2)o1 [Compound 4072, 2-(6-((4-(1H-indol-5-yl)-1H-1,2,3-triazol-1-yl)methyl)pyridin-3-yl)-5-(difluoromethyl)-1,3,4-oxadiazole] | ** (**, 50%˜100%) | > 50000 | 4854 | 10.3 |  |  |  |
| FC(F)c1nnc(-c2ccc(Cn3cc(-c4cccc(N5CCN(C6CCC6)CC5)c4)nn3)cc2)o1 [Compound 4371, 2-(4-((4-(3-(4-cyclobutylpiperazin-1-yl)phenyl)-1H-1,2,3-triazol-1-yl)methyl)phenyl)-5-(difluoromethyl)-1,3,4-oxadiazole] | ** (**, 50%˜100%) | > 50000 | 917 | 54.5 |  |  |  |
| Cn1ccc2ccc(-c3cn(Cc4ccc(-c5nnc(C(F)F)o5)cn4)nn3)cc21 [Compound 3914, 2-(difluoromethyl)-5-(6-((4-(1-methyl-1H-indol-6-yl)-1H-1,2,3-triazol-1-yl)methyl)pyridin-3-yl)-1,3,4-oxadiazole] | * (*, 0%˜50%) | > 50000 | 1190 | 43.2 |  |  |  |
| Fc1cc(-c2nnc(C(F)F)o2)ccc1Cn1cc(-c2ccc3cn[nH]c3c2)nn1 [Compound 4342, 2-(4-((4-(1H-indazol-6-yl)-1H-1,2,3-triazol-1-yl)methyl)-3-fluorophenyl)-5-(difluoromethyl)-1,3,4-oxadiazole] | * (*, 0%˜50%) | > 50000 | 1453 | 34.4 |  |  |  |
| FC(F)c1nnc(-c2ccc(Cn3cc(-c4cncc(Cl)c4)nn3)nc2)o1 [Compound 3883, 2-(6-((4-(5-chloropyridin-3-yl)-1H-1,2,3-triazol-1-yl)methyl)pyridin-3-yl)-5-(difluoromethyl)-1,3,4-oxadiazole] | * (*, 0%˜50%) | > 50000 | 1474 | 33.9 |  |  |  |
| FC(F)c1nnc(-c2ccc(Cn3cc(-c4cccc5[nH]ncc45)nn3)cc2)o1 [Compound 4347, 2-(4-((4-(1H-indazol-4-yl)-1H-1,2,3-triazol-1-yl)methyl)phenyl)-5-(difluoromethyl)-1,3,4-oxadiazole] | * (*, 0%˜50%) | > 50000 | 6849 | 7.3 |  |  |  |
| Cc1ccc(-c2cn(Cc3ccc(-c4nnc(C(F)F)o4)cn3)nn2)cn1 [Compound 3925, 2-(difluoromethyl)-5-(6-((4-(6-methylpyridin-3-yl)-1H-1,2,3-triazol-1-yl)methyl)pyridin-3-yl)-1,3,4-oxadiazole] | *** (***, >100%) | > 50000 | 1424 | 35.1 |  |  |  |
| FC(F)c1nnc(-c2ccc(Cn3cc(-c4cnc5[nH]ccc5c4)nn3)nc2)o1 [Compound 3841, 2-(6-((4-(1H-pyrrolo[2,3-b]pyridin-5-yl)-1H-1,2,3-triazol-1-yl)methyl)pyridin-3-yl)-5-(difluoromethyl)-1,3,4-oxadiazole] | *** (***, >100%) | > 50000 | 5952 | 8.4 |  |  |  |
| FC(F)c1nnc(-c2ccc(Cn3cc(-c4ccc5[nH]ccc5c4)nn3)cc2)o1 [Compound 4080, 2-(4-((4-(1H-indol-5-yl)-1H-1,2,3-triazol-1-yl)methyl)phenyl)-5-(difluoromethyl)-1,3,4-oxadiazole] | *** (***, >100%) | > 50000 | 2145 | 23.3 |  |  |  |
| CN1CCC(c2cccc(-c3cn(Cc4ccc(-c5nnc(C(F)F)o5)cn4)nn3)c2)CC1 [Compound 4010, 2-(difluoromethyl)-5-(6-((4-(3-(1-methylpiperidin-4-yl)phenyl)-1H-1,2,3-triazol-1-yl)methyl)pyridin-3-yl)-1,3,4-oxadiazole] | *** (***, >100%) | > 50000 | 2369 | 21.1 |  |  |  |
| Cn1ncc2c(-c3cn(Cc4ccc(-c5nnc(C(F)F)o5)cn4)nn3)cccc21 [Compound 3842, 2-(difluoromethyl)-5-(6-((4-(1-methyl-1H-indazol-4-yl)-1H-1,2,3-triazol-1-yl)methyl)pyridin-3-yl)-1,3,4-oxadiazole] | ** (**, 50%˜100%) | > 50000 | 2032 | 24.6 |  |  |  |
